The values below come from US20250100996A1, “HETEROCYCLOALKYL AND HETEROARYL COMPOUNDS AND PHARMACEUTICAL COMPOSITIONS THAT MODULATE IKZF2” (Plexium, Inc., priority 2021, published 2025).

Experiment [1] has as its target T1, human E3 ligase component cereblon (CRBN) (Homo sapiens, UniProt Q96SW2).
T1 construct: host or cells: HEK293T
Put plainly: Cereblon (CRBN) target engagement, NanoBRET TE Intracellular E3 Ligase Assay in transfected HEK-293T cells. To be noted: read-out: CRBN Binding EC50. In a few lines:
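Tracer displacement was read as the 610/450 nm BRET signal after 2 h at 37° C with an 11-point dilution series, typically 10 μM to 100 pM. Live HEK-293T cells expressed NanoLuc fused N-terminal to human CRBN together with DDB1. IC50 was fitted with a four-parameter logistic model.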
(In general: BRET reads energy transfer from a luciferase to a nearby fluorophore.)

Experiment [2] concerns the target T2, IKZF2 (Helios) (Homo sapiens, UniProt Q9UKS7).
T2 construct: Leu-Asp junction (codons ctcgac before the linker); mScarlet (behind P2A) (C, cleaved yes); expressed in transfected cells
Kind of experiment: IKZF2 reporter degradation assay (HEK 293T IKZF2-mNeonGreen reporter cell line). The conditions noted are these: HEK 293T IKZF2-mNeonGreen reporter, 24 hours incubation. Type of experiment: cell-based. In short, it runs like this: (§1)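 Cells were seeded overnight and then dosed with DMSO dilutions of compound. After 24 h, the plates were imaged live in the FITC and TRITC channels. The fraction of reporter-positive cells was plotted and fitted to a four-parameter logistic curve to give DC50.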

Experiment [3] addresses T3, IKZF2 (Helios) (Homo sapiens, UniProt Q96SW2+Q9UKS7).
T3 construct: Leu-Asp junction (codons ctcgac before the linker); mScarlet (behind P2A) (C, cleaved yes); expressed in transfected cells
The description is as above. Type of experiment: cell-based. The conditions noted are these: HEK-293T, 24 h, @ 1 μM, HEK 293T IKZF2-mNeonGreen reporter, 24 hours incubation. In a few lines:
as §1

Another experiment concerns the target T4, IKZF1 (Ikaros) (Homo sapiens, UniProt Q13422).
T4 construct: mScarlet (behind P2A) (C, cleaved yes); expressed in transfected cells
Put plainly: IKZF1 reporter degradation assay (HEK 293T IKZF1-mNeonGreen reporter cell line). Type of experiment: cell-based. The conditions noted are these: HEK 293T IKZF1-mNeonGreen reporter, 24 hours incubation. In short, it runs like this: as §1

Another experiment deals with T5, IKZF3 (Aiolos) (Homo sapiens, UniProt Q9UKT9).
T5 construct: Leu-Asp junction (codons ctcgac before the linker); mScarlet (behind P2A) (C, cleaved yes); expressed in transfected cells
Kind of experiment: IKZF3 reporter degradation assay (HEK 293T IKZF3-mNeonGreen reporter cell line). It counts as cell-based. To be noted: HEK 293T IKZF3-mNeonGreen reporter, 24 hours incubation. In a few lines: as §1

T2 sequence (Q9UKS7 whole entry): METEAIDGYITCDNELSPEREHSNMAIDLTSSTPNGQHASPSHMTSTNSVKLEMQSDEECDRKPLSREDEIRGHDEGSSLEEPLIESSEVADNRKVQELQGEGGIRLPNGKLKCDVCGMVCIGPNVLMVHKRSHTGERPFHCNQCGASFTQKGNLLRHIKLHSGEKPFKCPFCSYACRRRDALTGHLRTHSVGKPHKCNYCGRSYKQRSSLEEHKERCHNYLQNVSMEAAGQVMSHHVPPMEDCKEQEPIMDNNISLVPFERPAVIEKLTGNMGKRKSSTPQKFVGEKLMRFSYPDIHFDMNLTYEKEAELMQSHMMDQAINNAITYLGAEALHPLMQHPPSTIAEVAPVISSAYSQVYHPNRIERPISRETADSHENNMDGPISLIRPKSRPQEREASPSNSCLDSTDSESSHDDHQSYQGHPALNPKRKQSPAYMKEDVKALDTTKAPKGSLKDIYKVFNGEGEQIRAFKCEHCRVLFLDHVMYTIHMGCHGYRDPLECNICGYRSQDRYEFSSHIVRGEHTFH
T2 sequence (Q96SW2 whole entry, further chain): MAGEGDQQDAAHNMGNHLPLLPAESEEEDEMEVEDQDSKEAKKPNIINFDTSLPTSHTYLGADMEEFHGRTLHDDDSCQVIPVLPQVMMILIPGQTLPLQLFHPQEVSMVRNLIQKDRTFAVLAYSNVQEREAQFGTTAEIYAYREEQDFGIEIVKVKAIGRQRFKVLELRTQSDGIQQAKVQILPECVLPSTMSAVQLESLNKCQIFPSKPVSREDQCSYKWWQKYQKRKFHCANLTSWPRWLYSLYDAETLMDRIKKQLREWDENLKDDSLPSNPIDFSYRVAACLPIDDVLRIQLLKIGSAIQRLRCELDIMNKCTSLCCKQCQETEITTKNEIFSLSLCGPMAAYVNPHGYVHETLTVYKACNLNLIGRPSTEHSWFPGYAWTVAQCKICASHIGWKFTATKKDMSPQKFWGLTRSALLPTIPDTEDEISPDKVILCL
T2 sequence (Q16531 whole entry partner): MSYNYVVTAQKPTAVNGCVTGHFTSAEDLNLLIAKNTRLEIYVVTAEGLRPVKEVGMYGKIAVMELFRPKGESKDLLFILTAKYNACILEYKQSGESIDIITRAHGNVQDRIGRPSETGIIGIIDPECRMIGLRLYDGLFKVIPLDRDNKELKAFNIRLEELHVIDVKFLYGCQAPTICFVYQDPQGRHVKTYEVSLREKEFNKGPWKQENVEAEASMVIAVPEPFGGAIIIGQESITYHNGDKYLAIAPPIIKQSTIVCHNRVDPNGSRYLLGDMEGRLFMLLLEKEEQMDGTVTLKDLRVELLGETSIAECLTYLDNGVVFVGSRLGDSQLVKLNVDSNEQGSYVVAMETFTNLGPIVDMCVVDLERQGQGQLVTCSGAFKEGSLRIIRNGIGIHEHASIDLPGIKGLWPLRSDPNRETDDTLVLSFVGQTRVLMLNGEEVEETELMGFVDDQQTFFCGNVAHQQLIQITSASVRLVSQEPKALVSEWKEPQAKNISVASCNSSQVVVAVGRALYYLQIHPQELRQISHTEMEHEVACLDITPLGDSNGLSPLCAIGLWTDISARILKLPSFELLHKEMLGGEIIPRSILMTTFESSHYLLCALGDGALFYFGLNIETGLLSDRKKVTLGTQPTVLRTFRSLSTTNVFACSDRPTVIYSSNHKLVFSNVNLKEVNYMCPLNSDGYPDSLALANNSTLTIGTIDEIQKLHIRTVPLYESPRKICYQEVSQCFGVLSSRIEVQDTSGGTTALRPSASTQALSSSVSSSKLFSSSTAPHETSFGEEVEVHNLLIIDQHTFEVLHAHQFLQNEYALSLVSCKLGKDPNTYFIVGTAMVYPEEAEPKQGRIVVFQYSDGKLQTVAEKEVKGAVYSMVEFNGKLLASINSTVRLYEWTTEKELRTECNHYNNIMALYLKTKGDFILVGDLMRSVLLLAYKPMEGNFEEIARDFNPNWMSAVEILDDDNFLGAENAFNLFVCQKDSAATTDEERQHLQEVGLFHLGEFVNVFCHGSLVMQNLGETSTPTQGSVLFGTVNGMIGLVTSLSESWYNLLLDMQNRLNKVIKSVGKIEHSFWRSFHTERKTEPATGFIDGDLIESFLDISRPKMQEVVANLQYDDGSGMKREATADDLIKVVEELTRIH
T3 sequence (Q9UKS7 whole entry): as the sequence (Q9UKS7 whole entry) above
T3 sequence (Q96SW2 whole entry): as the sequence (Q96SW2 whole entry, further chain) above
T3 sequence (Q16531 whole entry partner): as the sequence (Q16531 whole entry partner) above
T1 sequence (Q96SW2 whole entry): as the sequence (Q96SW2 whole entry, further chain) above
T1 sequence (Q16531 whole entry partner): as the sequence (Q16531 whole entry partner) above
T4 sequence (Q96SW2 whole entry partner): as the sequence (Q96SW2 whole entry, further chain) above
T4 sequence (Q16531 whole entry partner): as the sequence (Q16531 whole entry partner) above
T4 sequence (Q13422 whole entry): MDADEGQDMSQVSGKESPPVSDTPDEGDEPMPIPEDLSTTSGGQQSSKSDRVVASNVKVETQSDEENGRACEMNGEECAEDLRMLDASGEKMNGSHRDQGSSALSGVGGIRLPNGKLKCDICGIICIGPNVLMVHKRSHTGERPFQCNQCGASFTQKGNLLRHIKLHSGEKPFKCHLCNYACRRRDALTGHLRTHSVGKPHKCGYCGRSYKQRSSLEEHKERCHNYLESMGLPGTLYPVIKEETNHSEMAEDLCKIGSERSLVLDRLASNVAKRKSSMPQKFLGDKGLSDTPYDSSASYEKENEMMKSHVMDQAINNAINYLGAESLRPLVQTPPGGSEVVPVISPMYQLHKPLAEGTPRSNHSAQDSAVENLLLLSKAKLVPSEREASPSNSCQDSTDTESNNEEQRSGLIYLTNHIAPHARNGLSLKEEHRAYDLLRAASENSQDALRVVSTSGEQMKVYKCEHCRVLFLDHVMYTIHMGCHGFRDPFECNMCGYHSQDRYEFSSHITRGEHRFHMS
T5 sequence (Q96SW2 whole entry partner): as the sequence (Q96SW2 whole entry, further chain) above
T5 sequence (Q16531 whole entry partner): as the sequence (Q16531 whole entry partner) above
T5 sequence (Q9UKT9 whole entry): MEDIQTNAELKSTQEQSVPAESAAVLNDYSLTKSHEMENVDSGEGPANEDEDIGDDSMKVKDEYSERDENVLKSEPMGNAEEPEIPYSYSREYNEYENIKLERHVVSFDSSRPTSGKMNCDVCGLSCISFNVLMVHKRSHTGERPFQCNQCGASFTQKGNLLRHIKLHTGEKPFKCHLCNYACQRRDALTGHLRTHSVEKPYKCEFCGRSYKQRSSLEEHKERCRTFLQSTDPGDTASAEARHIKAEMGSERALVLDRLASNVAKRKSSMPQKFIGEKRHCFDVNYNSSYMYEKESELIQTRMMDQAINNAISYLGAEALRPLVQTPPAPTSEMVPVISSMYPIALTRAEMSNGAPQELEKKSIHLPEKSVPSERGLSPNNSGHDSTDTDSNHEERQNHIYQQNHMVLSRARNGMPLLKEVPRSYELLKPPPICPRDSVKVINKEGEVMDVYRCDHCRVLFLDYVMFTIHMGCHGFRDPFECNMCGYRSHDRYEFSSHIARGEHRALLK

For orientation: EC50 means the concentration needed to bring the measured effect to its halfway point. One may read the DC50 as the concentration giving 50% degradation. Higher therefore signals a less potent degrader. Broadly, the inhibition is the change of the read-out against control, counted positive when it falls. Read a high inhibition as a response far below the control. As for `O=C1CCC(N2Cc3cc(O[C@@H]4CCC[C@@H]4N4CC(c5ccnc6ccccc56)C4)ccc3C2=O)C(=O)N1` (stereo partly drawn) [Compound 194-B, 3-(1-oxo-5-(((1R,2S)-2-(3-(quinolin-4-yl)azetidin-1-yl)cyclopentyl)oxy)isoindolin-2-yl)piperidine-2,6-dione], the EC50 in experiment [1] turned out to be 17 nM. The values for the 50% degradation concentration (DC50) at IKZF2 (Helios) [2], on IKZF1 (Ikaros) and at IKZF3 (Aiolos) were 7 nM, above 30 µM and 0.283 µM, respectively. Further, the inhibition at 1 µM against IKZF2 (Helios) [3] amounted to 79.8%; against IKZF3 (Aiolos) (HEK-293T, 24 h, @ 1 μM), 26.6%.

`O=C1CCC(N2Cc3cc(O[C@H]4CCCC[C@@H]4N4CC(c5ccncc5Cl)C4)ccc3C2=O)C(=O)N1` (mixture of isomers) [Compound 173-B, Rac-3-(5-(((trans)-2-(3-(3-chloropyridin-4-yl)azetidin-1-yl)cyclohexyl)oxy)-1-oxoisoindolin-2-yl)piperidine-2,6-dione]: in experiment [1], the EC50 came to 52 nM. Besides, the half-maximal degradation concentration (DC50) at IKZF2 (Helios) [2] is 31 nM; at IKZF1 (Ikaros), above 30 µM; on IKZF3 (Aiolos), above 30 µM. The same compound yielded an inhibition at 1 µM against IKZF2 (Helios) [3] of 66.7%.

On to `O=C1CCC(N2Cc3cc(O[C@H]4CCCC[C@@H]4N4CC(c5ncc(C(F)(F)F)cn5)C4)ccc3C2=O)C(=O)N1` (mixture of isomers) [Compound 187-B, Rac-3-(1-oxo-5-(((trans)-2-(3-(5-(trifluoromethyl)pyrimidin-2-yl)azetidin-1-yl)cyclohexyl)oxy)isoindolin-2-yl)piperidine-2,6-dione], for which, in experiment [1], the concentration for a half-maximal effect (EC50) turned out to be 6 nM. For the same compound, the DC50 at IKZF2 (Helios) [2] is 85 nM; at IKZF1 (Ikaros), above 30 µM; at IKZF3 (Aiolos) it was above 30 µM. The same compound showed an inhibition at 1 µM on IKZF2 (Helios) [3] of 27.4%.

`O=C1CCC(N2Cc3cc(OC4CCCCC4N4CC(c5ccnc6[nH]ccc56)C4)ccc3C2=O)C(=O)N1` (centres unmarked) [Compound 199-B, 3-(5-((2-(3-(1H-pyrrolo[2,3-b]pyridin-4-yl)azetidin-1-yl)cyclohexyl)oxy)-1-oxoisoindolin-2-yl)piperidine-2,6-dione]: in experiment [1], the concentration for a half-maximal effect (EC50) amounted to 21 nM. Moreover, the DC50 was 14 nM on IKZF2 (Helios) [2], above 30 µM at IKZF1 (Ikaros) and above 30 µM at IKZF3 (Aiolos). Moreover, on IKZF2 (Helios) [3], the inhibition at 1 µM is 75%.

As for `O=C1CCC(N2Cc3cc(O[C@H]4CCCC[C@@H]4N4CC(c5ccc6c(c5)OCCO6)C4)ccc3C2=O)C(=O)N1` (stereo partly drawn) [Compound 58-A, 3-(5-(((1S,2S)-2-(3-(2,3-dihydrobenzo[b][1,4]dioxin-6-yl)azetidin-1-yl)cyclohexyl)oxy)-1-oxoisoindolin-2-yl)piperidine-2,6-dione], the EC50 in experiment [1] turned out to be 3 nM. Also, the 50% degradation concentration (DC50) on IKZF2 (Helios) [2] is 5 nM; at IKZF1 (Ikaros) it was above 30 µM; at IKZF3 (Aiolos), above 30 µM. This compound also registered an inhibition at 1 µM against IKZF2 (Helios) [3] of 64.5%.

On to `Cc1ccnc(C2CN([C@H]3CCCC[C@@H]3Oc3ccc4c(c3)CN(C3CCC(=O)NC3=O)C4=O)C2)n1` (mixture of isomers) [Compound 188-B, Rac-3-(5-(((trans)-2-(3-(4-methylpyrimidin-2-yl)azetidin-1-yl)cyclohexyl)oxy)-1-oxoisoindolin-2-yl)piperidine-2,6-dione], for which the concentration giving a half-maximal response (EC50) in experiment [1] is 44 nM. Moreover, the DC50 is 240 nM on IKZF2 (Helios) [2], above 30 µM at IKZF1 (Ikaros) and above 30 µM at IKZF3 (Aiolos). This compound also had an inhibition at 1 µM on IKZF2 (Helios) [3] of 42%.

On to `Cc1cnccc1C1CN(C2CCCCC2Oc2ccc3c(c2)CN(C2CCC(=O)NC2=O)C3=O)C1` (centres unmarked) [Compound 198-B, 3-(5-((2-(3-(3-methylpyridin-4-yl)azetidin-1-yl)cyclohexyl)oxy)-1-oxoisoindolin-2-yl)piperidine-2,6-dione], for which, in experiment [1], the EC50 turned out to be 10 nM. Besides, the figures for the DC50 at IKZF2 (Helios) [2], on IKZF1 (Ikaros) and at IKZF3 (Aiolos) were 11 nM, above 30 µM and above 30 µM, respectively. In addition, at IKZF2 (Helios) [3], testing at 1 µM gave an inhibition of 72.3%.

Consider `O=C1CCC(N2Cc3cc(O[C@H]4CCCC[C@@H]4N4CC(c5ccncc5F)C4)ccc3C2=O)C(=O)N1` (mixture of isomers) [Compound 167-B, Rac-3-(5-(((trans)-2-(3-(3-fluoropyridin-4-yl)azetidin-1-yl)cyclohexyl)oxy)-1-oxoisoindolin-2-yl)piperidine-2,6-dione], for which the EC50 in experiment [1] came out at 74 nM. Moreover, the 50% degradation concentration (DC50) at IKZF2 (Helios) [2] is 241 nM; on IKZF1 (Ikaros) it was above 30 µM; on IKZF3 (Aiolos), above 30 µM. At IKZF2 (Helios) [3], this compound displayed an inhibition at 1 µM of 28.8%.

In the case of `O=C1CCC(N2Cc3cc(O[C@@H]4CCCC[C@@H]4N4CC(c5ccc(C(F)(F)F)cn5)C4)ccc3C2=O)C(=O)N1` (mixture of isomers) [Compound 182-B, Rac-3-(1-oxo-5-(((cis)-2-(3-(5-(trifluoromethyl)pyridin-2-yl)azetidin-1-yl)cyclohexyl)oxy)isoindolin-2-yl)piperidine-2,6-dione], the EC50 in experiment [1] came to 9 nM. Further, the 50% degradation concentration (DC50) at IKZF2 (Helios) [2] was 5 nM; on IKZF1 (Ikaros) it was above 30 µM; on IKZF3 (Aiolos), above 30 µM. On IKZF2 (Helios) [3], this compound yielded an inhibition at 1 µM of 78.3%.

For the compound `O=C1CCC(N2Cc3cc(OC4CCC[C@@H]4N4CC(c5ccncc5)C4)ccc3C2=O)C(=O)N1` (mixture of isomers) [Compound 205-B, Rac-3-(1-oxo-5-(((cis)-2-(3-(pyridin-4-yl)azetidin-1-yl)cyclopentyl)oxy)isoindolin-2-yl)piperidine-2,6-dione], the concentration giving a half-maximal response (EC50) in experiment [1] was found to be 46 nM. The DC50 is 219 nM on IKZF2 (Helios) [2], above 30 µM at IKZF1 (Ikaros) and above 30 µM at IKZF3 (Aiolos). Also, 1 µM produced 40.6% inhibition on IKZF2 (Helios) [3].

For the compound `Cc1cnc(C2CN([C@H]3CCCC[C@@H]3Oc3ccc4c(c3)CN(C3CCC(=O)NC3=O)C4=O)C2)nc1` (mixture of isomers) [Compound 189-B, Rac-3-(5-(((trans)-2-(3-(5-methylpyrimidin-2-yl)azetidin-1-yl)cyclohexyl)oxy)-1-oxoisoindolin-2-yl)piperidine-2,6-dione], the EC50 in experiment [1] worked out at 13 nM. Further, the values for the DC50 at IKZF2 (Helios) [2], at IKZF1 (Ikaros) and at IKZF3 (Aiolos) were 123 nM, above 30 µM and above 30 µM, respectively. Also, on IKZF2 (Helios) [3], the inhibition at 1 µM came out at 21.2%.

For the compound `O=C1CCC(N2Cc3cc(OC4CCCCC4N4CC(c5ccc6cccnc6c5)C4)ccc3C2=O)C(=O)N1` (centres unmarked) [Compound 193-B, 3-(1-oxo-5-((2-(3-(quinolin-7-yl)azetidin-1-yl)cyclohexyl)oxy)isoindolin-2-yl)piperidine-2,6-dione], in experiment [1], the concentration for a half-maximal effect (EC50) is 6 nM. Moreover, the DC50 at IKZF2 (Helios) [2] was 6 nM; at IKZF1 (Ikaros), above 30 µM; on IKZF3 (Aiolos), above 30 µM. The same compound had an inhibition at 1 µM on IKZF2 (Helios) [3] of 81.9%.

On to `O=C1CCC(N2Cc3cc(OC4CCCCC4N4CC(c5ncc(C6CC6)cn5)C4)ccc3C2=O)C(=O)N1` (centres unmarked) [Compound 177-B, 3-(5-((2-(3-(5-cyclopropylpyrimidin-2-yl)azetidin-1-yl)cyclohexyl)oxy)-1-oxoisoindolin-2-yl)piperidine-2,6-dione], for which, in experiment [1], the concentration giving a half-maximal response (EC50) was found to be 2 nM. Besides, the DC50 at IKZF2 (Helios) [2] is 4 nM; on IKZF1 (Ikaros), above 30 µM; at IKZF3 (Aiolos), above 30 µM. On IKZF2 (Helios) [3], this compound had an inhibition at 1 µM of 70.3%.

For the compound `O=C1CCC(N2Cc3cc(OC4CCC[C@@H]4N4CC(c5cncnc5)C4)ccc3C2=O)C(=O)N1` (mixture of isomers) [Compound 196-B, Rac-3-(1-oxo-5-(((cis)-2-(3-(pyrimidin-5-yl)azetidin-1-yl)cyclopentyl)oxy)isoindolin-2-yl)piperidine-2,6-dione], the EC50 in experiment [1] came to 214 nM. Also, the DC50 on IKZF2 (Helios) [2] was 601 nM; at IKZF1 (Ikaros) it was above 30 µM; on IKZF3 (Aiolos), above 30 µM. Besides, testing at 1 µM against IKZF2 (Helios) [3] gave an inhibition of 17.6%.
